Reference: ChEMBL document CHEMBL1201862, “PubChem BioAssay data set” (2004)
Calls of active or inactive are those of the source.

Columns and labels:
[1] = tested on: Streptococcus; assay: GAS UMAA2166 growth inhibition – luminescence, BacTiterGlo, counter-screen for streptokinase expression inhibitor project, dose response (AID 1915); assay type: functional, organism-based;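 further: potency for reduction of bacterial viability or growth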
[2] = target: T1, High affinity choline transporter 1 (Homo sapiens, UniProt Q9GZV3); assay: human choline transporter blockers, potency – cell-based, 5-point CRC, membrane potential dye, dose response (AID 504840); assay type: functional
T1 sequence (Q9GZV3 whole entry): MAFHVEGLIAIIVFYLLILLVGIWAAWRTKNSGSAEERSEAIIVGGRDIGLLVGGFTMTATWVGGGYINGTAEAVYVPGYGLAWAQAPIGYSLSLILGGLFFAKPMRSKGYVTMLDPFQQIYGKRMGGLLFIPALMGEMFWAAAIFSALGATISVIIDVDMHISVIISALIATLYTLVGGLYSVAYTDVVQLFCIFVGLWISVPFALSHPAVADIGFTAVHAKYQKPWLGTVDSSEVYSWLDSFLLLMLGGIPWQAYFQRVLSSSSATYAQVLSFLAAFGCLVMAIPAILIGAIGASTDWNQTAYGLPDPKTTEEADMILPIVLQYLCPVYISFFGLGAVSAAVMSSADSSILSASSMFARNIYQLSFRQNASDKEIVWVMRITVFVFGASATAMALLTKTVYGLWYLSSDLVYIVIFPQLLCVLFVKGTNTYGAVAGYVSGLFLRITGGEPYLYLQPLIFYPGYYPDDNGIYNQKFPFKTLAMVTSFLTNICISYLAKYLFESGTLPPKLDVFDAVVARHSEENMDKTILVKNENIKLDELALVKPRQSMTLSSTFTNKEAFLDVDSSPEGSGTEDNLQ

[3] = target: Genome polyprotein (dengue virus type 2, UniProt P29990); assay: flavivirus cap methylation enzyme inhibition – biochemical, confirmation dose response, primary screen (AID 588689); assay type: functional
Chain of Genome polyprotein (P29990 2492-3391 limits assumed): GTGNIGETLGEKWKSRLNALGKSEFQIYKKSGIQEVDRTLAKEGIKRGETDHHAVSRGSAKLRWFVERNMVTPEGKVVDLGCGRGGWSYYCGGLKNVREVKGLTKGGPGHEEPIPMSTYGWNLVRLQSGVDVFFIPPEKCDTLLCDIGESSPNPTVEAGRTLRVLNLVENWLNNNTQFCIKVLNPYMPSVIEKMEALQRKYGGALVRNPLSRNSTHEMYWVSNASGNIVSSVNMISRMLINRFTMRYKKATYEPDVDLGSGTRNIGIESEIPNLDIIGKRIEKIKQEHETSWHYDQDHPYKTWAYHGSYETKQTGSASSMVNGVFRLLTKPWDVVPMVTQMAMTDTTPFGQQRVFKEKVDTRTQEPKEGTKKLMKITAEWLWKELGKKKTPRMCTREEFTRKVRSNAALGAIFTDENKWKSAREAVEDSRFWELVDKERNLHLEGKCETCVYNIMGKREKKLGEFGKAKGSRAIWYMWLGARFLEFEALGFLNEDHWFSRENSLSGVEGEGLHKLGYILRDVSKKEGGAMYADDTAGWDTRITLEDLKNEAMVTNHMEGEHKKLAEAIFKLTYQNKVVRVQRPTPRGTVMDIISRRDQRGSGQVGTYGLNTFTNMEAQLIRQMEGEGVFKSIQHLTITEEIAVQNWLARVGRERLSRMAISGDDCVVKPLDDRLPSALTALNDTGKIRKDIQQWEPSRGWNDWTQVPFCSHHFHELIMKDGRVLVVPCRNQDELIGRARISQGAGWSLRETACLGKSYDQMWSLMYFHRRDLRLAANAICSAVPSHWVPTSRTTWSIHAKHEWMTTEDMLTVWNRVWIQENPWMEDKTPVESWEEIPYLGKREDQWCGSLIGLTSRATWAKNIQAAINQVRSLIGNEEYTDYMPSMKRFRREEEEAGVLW

[4] = tested on: Streptococcus sp. 'group A'; assay: Streptococcus pyogenes SK(-)GAS viability under kanamycin – luminescence, BacTiterGlo, confirmation, counter-screen for streptokinase expression inhibitor project, dose response (AID 1900); assay type: functional, organism-based
[5] = target: T2, Polyadenylate-binding protein 1 (Homo sapiens, UniProt P11940); assay: MLLE binding blockers, Cy5 peptide tracer – biochemical, fluorescence polarization, Cy5-PAM2 peptide, secondary, miRNA deadenylation inhibitor project, dose response (AID 602260); assay type: functional; conditions: read-out: IC50_Mean
T2 sequence (P11940 whole entry, the tested form may be a part): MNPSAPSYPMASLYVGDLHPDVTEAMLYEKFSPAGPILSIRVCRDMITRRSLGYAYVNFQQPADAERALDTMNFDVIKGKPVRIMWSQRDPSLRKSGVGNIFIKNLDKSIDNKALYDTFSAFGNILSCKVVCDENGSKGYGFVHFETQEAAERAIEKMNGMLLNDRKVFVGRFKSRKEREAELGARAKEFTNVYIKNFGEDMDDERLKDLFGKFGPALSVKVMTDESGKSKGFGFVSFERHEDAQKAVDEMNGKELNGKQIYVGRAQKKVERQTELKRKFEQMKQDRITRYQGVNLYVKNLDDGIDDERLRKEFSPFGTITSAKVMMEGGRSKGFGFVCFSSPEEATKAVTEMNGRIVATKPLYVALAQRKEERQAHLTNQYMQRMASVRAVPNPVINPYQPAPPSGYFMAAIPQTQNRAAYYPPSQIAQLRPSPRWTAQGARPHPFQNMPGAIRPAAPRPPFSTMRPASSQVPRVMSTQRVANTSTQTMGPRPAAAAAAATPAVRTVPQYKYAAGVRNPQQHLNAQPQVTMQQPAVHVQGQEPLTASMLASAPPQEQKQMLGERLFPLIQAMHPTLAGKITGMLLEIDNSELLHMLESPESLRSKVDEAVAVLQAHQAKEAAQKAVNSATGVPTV

[6] = target: T2, Polyadenylate-binding protein 1; assay: MLLE domain peptide-binding blockers, IC50 – biochemical, fluorescence polarization, FITC-PAM2 peptide, dose response (AID 602259); assay type: functional; conditions: read-out: IC50_Mean
[7] = cells; assay type: functional
[8] = target: Cytochrome P450 3A4 (Homo sapiens, UniProt P08684);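 further: CYP3A4 tested as one member of a cytochrome P450 panel screen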
Chain of Cytochrome P450 3A4 (P08684 whole entry): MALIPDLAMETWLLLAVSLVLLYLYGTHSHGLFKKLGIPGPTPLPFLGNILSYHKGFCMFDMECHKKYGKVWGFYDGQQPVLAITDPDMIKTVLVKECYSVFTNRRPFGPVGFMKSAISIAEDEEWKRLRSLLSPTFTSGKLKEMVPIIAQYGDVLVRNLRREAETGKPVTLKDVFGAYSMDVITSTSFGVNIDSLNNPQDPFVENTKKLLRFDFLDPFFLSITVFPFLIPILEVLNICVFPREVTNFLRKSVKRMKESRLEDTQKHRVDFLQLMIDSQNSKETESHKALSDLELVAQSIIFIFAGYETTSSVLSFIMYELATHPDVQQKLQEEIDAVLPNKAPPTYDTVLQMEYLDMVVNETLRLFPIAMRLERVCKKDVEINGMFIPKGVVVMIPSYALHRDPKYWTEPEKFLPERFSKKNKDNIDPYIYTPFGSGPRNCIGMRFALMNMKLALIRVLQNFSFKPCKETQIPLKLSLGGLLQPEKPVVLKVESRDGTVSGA

[9] = target: Cytochrome P450 2D6 (Homo sapiens, UniProt P10635);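 further: CYP2D6 member of a cytochrome P450 panel assay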
Chain of Cytochrome P450 2D6 (P10635 whole entry): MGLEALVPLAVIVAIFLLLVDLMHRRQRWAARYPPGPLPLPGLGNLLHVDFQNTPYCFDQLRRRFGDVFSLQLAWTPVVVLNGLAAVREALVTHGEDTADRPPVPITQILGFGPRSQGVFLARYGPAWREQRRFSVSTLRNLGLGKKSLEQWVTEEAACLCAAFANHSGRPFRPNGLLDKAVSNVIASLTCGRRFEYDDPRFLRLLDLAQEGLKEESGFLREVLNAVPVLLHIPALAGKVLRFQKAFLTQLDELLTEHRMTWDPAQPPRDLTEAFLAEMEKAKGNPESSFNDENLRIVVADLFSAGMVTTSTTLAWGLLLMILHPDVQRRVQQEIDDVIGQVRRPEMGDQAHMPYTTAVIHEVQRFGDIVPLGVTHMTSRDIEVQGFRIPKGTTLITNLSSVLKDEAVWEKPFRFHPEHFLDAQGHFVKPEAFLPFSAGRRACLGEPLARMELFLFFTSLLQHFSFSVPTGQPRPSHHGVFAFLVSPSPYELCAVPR

[10] = target: Luciferin 4-monooxygenase (Photinus pyralis, UniProt P08659); assay: inhibition of purified Photinus pyralis luciferase – biochemical, luminescence, dose response (AID 1891)
Chain of Luciferin 4-monooxygenase (P08659 whole entry): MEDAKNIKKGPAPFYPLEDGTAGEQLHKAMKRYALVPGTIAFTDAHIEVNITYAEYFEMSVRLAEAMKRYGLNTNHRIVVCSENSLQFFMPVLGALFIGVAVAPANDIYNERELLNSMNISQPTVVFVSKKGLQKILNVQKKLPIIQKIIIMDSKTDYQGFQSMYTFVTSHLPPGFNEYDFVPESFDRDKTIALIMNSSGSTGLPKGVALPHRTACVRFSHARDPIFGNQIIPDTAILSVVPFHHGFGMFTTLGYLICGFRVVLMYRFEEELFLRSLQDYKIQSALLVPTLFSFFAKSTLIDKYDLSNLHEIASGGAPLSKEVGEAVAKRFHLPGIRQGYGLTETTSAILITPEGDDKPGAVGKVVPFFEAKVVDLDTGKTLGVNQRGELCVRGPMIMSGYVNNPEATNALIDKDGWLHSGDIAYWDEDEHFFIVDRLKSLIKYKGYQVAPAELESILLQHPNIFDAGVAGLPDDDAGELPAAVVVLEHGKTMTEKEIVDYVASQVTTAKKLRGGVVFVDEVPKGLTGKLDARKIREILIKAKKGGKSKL

[11] = Luminescence Cell-Based Dose Confirmation HTS to Identify Inhibitors of Platelet Dense Granule Release. [Related pubchem assays: 1663 (Primary HTS), 1678 (Summary of Project)]; assay type: functional
[12] = target: Cytochrome P450 2C9 (Homo sapiens, UniProt P11712)
Chain of Cytochrome P450 2C9 (P11712 whole entry): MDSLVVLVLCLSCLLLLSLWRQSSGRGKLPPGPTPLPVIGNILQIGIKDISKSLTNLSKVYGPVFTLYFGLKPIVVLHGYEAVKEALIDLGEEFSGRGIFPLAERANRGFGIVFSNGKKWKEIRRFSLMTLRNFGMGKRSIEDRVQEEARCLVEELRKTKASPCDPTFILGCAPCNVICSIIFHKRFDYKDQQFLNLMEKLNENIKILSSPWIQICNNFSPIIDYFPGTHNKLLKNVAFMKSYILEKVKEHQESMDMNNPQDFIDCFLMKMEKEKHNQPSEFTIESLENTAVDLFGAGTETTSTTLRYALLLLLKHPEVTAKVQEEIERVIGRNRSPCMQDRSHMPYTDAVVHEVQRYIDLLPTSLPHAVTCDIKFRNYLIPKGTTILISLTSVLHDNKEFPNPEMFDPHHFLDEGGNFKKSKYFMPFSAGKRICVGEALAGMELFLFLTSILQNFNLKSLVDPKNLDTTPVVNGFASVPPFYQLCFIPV

[13] = target: Cytochrome P450 2C19 (Homo sapiens, UniProt P33261); assay: Cytochrome panel assay with activity outcomes. Panel member name: p450-cyp2c19 Compounds with AC50 equal or less than 10 uM are considered active; assay type: functional; conditions: read-out: AC50
Chain of Cytochrome P450 2C19 (P33261 whole entry): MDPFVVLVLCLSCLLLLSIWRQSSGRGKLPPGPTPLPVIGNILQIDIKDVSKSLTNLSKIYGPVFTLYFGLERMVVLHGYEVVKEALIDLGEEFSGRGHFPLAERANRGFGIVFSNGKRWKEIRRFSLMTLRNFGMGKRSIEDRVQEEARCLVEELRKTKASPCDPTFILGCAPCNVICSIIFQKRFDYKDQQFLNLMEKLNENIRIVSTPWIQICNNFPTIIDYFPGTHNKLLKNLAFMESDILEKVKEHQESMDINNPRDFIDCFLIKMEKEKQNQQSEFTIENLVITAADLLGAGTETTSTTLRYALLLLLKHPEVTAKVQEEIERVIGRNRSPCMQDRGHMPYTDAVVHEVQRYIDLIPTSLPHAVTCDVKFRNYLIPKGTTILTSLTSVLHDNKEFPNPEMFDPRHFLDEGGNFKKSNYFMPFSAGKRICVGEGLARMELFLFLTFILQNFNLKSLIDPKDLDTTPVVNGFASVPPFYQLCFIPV

[14] = reduction of Shn3 3'UTR-driven luciferase in osteoblasts – cell-based, Clone20 osteoblasts, firefly luciferase, cherry-picked, dose response (AID 624132); assay type: functional;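 further: firefly luciferase luminescence from reporter carrying the Shn3 3'UTR in osteoblasts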
[15] = loss of viability in HepG2 cells – cell-based, CellTiter-Glo, cherry-picked, cytotoxicity control for Shn3 inhibitor project, dose response (AID 624134); assay type: functional
[16] = non-specific 3'UTR reporter inhibition in Clone20-Shn3RL – cell-based, Renilla luciferase, cherry-picked, counter-screen for Shn3 inhibitor project, dose response (AID 624133); assay type: functional

CC1=NN(C(N)=S)C(=O)C1N=Nc1c(Br)cc(Br)cc1Br (stereo unspecified)
EC50 [1]: 8.6 µM (active) | IC50 [2]: 12 µM (active) | IC50 [3]: 43.5 µM (active) | EC50 [4]: 2.76 µM (active)

COC(=O)C1=C(C(=O)OC)C(c2ccccc2O)c2sc(O)nc2S1 (stereo unspecified)
IC50 [3]: 93.2 µM (active) | IC50 [5]: > 66 µM (inactive) | IC50 [6]: > 66 µM (inactive)

Cc1ccc(OC(=O)CCS(=O)(=O)c2ccc(C)cc2)cc1
IC50 [7]: < 0.1 µM (active)

CN(C)c1ncc2nc(CCc3ccccc3)c(=O)n(C3CC3)c2n1
AC50 [8]: 10 µM (inconclusive) | AC50 [9]: 10 µM (inconclusive)

CC1CCC(NC(=O)c2ccc(NC(=O)CC3SC(N4CCCC4)=NC3=O)cc2)CC1 (stereo unspecified)
IC50 [2]: 14.5 µM (active)

CCCCCn1c(=O)c(C(=O)OCC)c(Cl)c2ccccc21
IC50 [2]: 19.1 µM (active)

CCC(=O)c1ccc(OCc2ccc(C(=O)OC)cc2)cc1
IC50 [7]: 38.8 µM (active)

Cc1c(C(=O)Nc2ccc(S(=O)(=O)NCC3CCCO3)cc2)cccc1[N+](=O)[O-] (stereo unspecified)
IC50 [2]: 14.5 µM (active)

CC1=NN(C(=O)c2ccccc2F)C(O)(c2ccc(Cl)cc2)C1 (stereo unspecified)
IC50 [7]: > 50 µM (active)

Cc1cc(C)n2nc(N)c(N=Nc3ccccc3)c2n1
IC50 [7]: 5.78 µM (active) | EC50 [10]: > 112 µM (not active) | EC50 [11]: > 112 µM (not active)

O=C(Nc1ccc(OC(F)(F)F)cc1)c1n[nH]c(Cn2cncn2)n1
AC50 [8]: 15.8 µM (inconclusive) | AC50 [12]: 11.2 µM (inconclusive) | AC50 [9]: 20 µM (inconclusive) | AC50 [13]: 2.51 µM (inconclusive)

CC(C)n1c(/C=C/[C@H](O)C[C@H](O)CC(=O)O)c(-c2ccc(F)cc2)c2ccccc21
AC50 [14]: 1.42 µM (active) | AC50 [15]: > 70 µM (inactive) | AC50 [16]: 5.95 µM (active)

O=C(C/C=N\OCc1ccc([N+](=O)[O-])cc1)Nc1ccc(F)cc1F
IC50 [7]: 33 µM (active)
